Data reported in patent US5399565A, “Pyrazolidinone CCK and gastrin antagonists and pharmaceutical formulations therof” (priority 1993, dated 1995).

Key:
brain CCK receptor = target: T1, brain CCK receptor (Mus musculus, UniProt P56481); experiment: CCK receptor binding, mouse brain membranes (125I-CCK-8 sulfate); details: for IC50: mouse brain membranes, read-out: Brain IC50; for inhibition at 10 µM: read-out: Brain Percent Inhibition
T1 construct: from tissue; host or cells: forebrain membranes of male CF-1 mice
T1 sequence (P56481 1-453): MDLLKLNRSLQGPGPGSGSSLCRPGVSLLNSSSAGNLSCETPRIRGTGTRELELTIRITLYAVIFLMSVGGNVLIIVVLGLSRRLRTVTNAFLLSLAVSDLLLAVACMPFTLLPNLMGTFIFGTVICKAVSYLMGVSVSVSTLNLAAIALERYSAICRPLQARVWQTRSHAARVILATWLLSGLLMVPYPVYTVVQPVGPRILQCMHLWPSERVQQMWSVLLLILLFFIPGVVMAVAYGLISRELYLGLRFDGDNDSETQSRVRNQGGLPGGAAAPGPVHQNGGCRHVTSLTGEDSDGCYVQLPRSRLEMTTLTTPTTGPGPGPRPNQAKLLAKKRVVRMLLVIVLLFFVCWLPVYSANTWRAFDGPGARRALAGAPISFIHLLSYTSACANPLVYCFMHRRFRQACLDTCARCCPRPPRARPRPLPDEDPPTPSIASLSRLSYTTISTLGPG

[1] = target: T2, peripheral type CCK receptors in rat pancreas (Rattus norvegicus, UniProt P30551); experiment: Binding to peripheral type CCK receptors in rat pancreas (3H-L-364,718); details: at 10 μM; read-out: Pancreas Percent Inhibition
T2 construct: Pancreas was obtained from male Sprague-Dawley rats; from tissue; host or cells: pancreas membranes of male Sprague-Dawley rats
T2 sequence (P30551 1-444): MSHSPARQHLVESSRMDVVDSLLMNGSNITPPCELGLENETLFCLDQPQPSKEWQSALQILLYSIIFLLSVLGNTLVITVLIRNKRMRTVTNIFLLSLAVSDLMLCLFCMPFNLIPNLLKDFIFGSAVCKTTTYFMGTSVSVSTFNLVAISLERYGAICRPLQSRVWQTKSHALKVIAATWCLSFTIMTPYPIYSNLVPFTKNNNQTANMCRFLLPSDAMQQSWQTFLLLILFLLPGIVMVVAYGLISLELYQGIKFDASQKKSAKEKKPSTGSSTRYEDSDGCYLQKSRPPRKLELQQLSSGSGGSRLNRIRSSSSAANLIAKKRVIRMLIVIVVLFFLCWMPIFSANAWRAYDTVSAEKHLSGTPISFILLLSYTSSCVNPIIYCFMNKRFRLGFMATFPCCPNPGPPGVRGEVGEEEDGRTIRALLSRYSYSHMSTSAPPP
How it was run: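 Washed pancreatic membranes from male Sprague-Dawley rats (150-200 g) incubated 1 h at room temperature with 0.4-0.6 nM ³H-L-364,718 in 50 mM Tris pH 7.4, 5 mM MgCl2, bacitracin, 5 mM DTT. Bound radioactivity counted after filtration; nonspecific binding defined with 100 nM L-364,718; IC50 determined.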

pKa by titration = details: 2:1 dmf:h2o, titration pKa
gastrin receptor = target: T3, gastrin receptor (Cavia porcellus, UniProt H0VZC5); experiment: Gastrin binding to guinea pig stomach mucosal membranes (125I-gastrin I); details: guinea pig stomach mucosal membranes; read-out: Gastrin IC50
T3 construct: Guinea pig stomach fundus was obtained from male Hartley guinea pigs; from tissue; host or cells: stomach fundus mucosal membranes of male Hartley guinea pigs
T3 sequence (H0VZC5 1-426): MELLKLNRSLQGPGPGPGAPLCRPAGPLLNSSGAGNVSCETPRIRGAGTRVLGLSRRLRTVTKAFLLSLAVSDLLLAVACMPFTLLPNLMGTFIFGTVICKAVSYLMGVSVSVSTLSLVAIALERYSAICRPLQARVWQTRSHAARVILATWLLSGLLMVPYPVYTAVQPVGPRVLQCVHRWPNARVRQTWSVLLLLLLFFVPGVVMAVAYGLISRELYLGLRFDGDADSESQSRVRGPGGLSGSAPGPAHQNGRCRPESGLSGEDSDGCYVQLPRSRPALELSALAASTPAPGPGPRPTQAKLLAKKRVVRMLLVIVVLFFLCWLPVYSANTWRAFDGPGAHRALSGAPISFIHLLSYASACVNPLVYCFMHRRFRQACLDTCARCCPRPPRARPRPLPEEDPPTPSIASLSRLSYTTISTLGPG
Method: The method used for gastrin binding to guinea pig stomach mucosal membranes was similar to that described by Takeuchi, Speir and Johnson (Am. J. Physiol. 237(3): E284-E294, 1979). Guinea pig stomach fundus was obtained from male Hartley guinea pigs, 300-350 g, and the mucosa was scraped off with a glass slide. The mucosa was homogenized in 50 mM Tris buffer, pH 7.4, containing 1 mM phenylmethanesulfonyl fluoride using a Dounce glass homogenizer, and the suspension was centrifuged at 40,000 g for 10 min. The resulting pellet was resuspended and centrifuged once more, the final pellet was then suspended in 100 ml assay buffer per 1 guinea pig stomach to give a protein concentration of 200-300 μg/200 μl. The assay buffer consisted of 50 mM Tris buffer, pH 7.4, 5 mM MgCl2, 0.14 mg/ml bacitracin, and 1 μg/ml each of leupeptin, chymostatin, aprotinin and pepstatin. Reagent volumes for the assay were the same as those used for CCK binding to brain membranes. The radioactive ligand was 20 pM ^125 I-gastrin I, from DuPont NEN (NEX-176). The samples were incubated 3 hours at room temperature and filtered and counted as described for CCK binding to brain membranes. Compound samples were prepared and IC-50 values were determined as described for the CCK-brain receptor binding. Non-specific binding was determined using 100 nM gastrin I (human synthetic from Sigma Chemical Co.).

Catalepsy bar test = type: in vivo, Male Sprague-Dawley rats
Method: Acute administration of classical antipsychotic drugs results in catalepsy. Production of catalepsy is thought to be predictive of Parkinson-like extrapyramidal side effects. Sanberg, et al., Neuroscience 102:748-759 (1988). […] Haloperidol, a classical anti-psychotic, was used as a reference.
Male Sprague-Dawley rats (290-350 g) were used in these studies. Catalepsy was evaluated using the bar test (Sanberg et al., Neurosci., 102,748-759, (1988); Ferre, et al., Pharm. Biochem. Beh., 35, 753-757 (1990). The bar apparatus consisted of a horizontal metal rod with a diameter of 1 cm, which was positioned 10 cm from the floor to the top of the bar. The animal was gently placed in front of the bar, and then its forepaws were lifted to rest on the bar. The length of time, in seconds, until both forepaws touched the floor (3 minutes maximum allowed) was recorded. A baseline measurement was taken prior to injection, and catalepsy was evaluated every 60 minutes for three hours after injection of the compounds (Table IV). In a separate set of experiments, the compounds of this invention were administered 60 minutes prior to the administration of haloperidol, and catalepsy was evaluated every 60 minutes for three hours after the haloperidol injection. Catalepsy scores of drug-treated animals were compared to haloperidol- or vehicle-treated animals at each time point using the analysis of variance (ANOVA) (Table V). Haloperidol (Research Biochemicals Inc.) was dissolved in distilled water and a small amount of 0.1N lactic acid. The compounds of this invention were prepared in 50% ethanol. The volume of all injections was 1 ml/kg.

[2] = Block of haloperidol-induced catalepsy, bar test; type: in vivo, Male Sprague-Dawley rats; details: vehicle pretreatment, then Hal
Method: Further, compounds of this invention were evaluated for their ability to block haloperidol-induced catalepsy. […] More preferredly, R and R^1 are trans.
Male Sprague-Dawley rats (290-350 g) were used in these studies. […] In a separate set of experiments, the compounds of this invention were administered 60 minutes prior to the administration of haloperidol, and catalepsy was evaluated every 60 minutes for three hours after the haloperidol injection. Catalepsy scores of drug-treated animals were compared to haloperidol- or vehicle-treated animals at each time point using the analysis of variance (ANOVA) (Table V). Haloperidol (Research Biochemicals Inc.) was dissolved in distilled water and a small amount of 0.1N lactic acid. The compounds of this invention were prepared in 50% ethanol. The volume of all injections was 1 ml/kg.

## O=C1NN(c2nc3ccc(Cl)cc3s2)[C@@H](c2ccccc2)[C@@H]1c1ccccc1 (relative stereo) [Example 9, 1-[6-Chloro-2-benzothiazolyl]-4,5-diphenyl-3-pyrazolidinone]
Brain CCK receptor
  IC50: 3.7 µM
[1]
  inhibition at 10 µM: 33%
pKa by titration; first or only value
  pKa: 6.6

## O=C1NN(C(=O)NCc2ccc(Cl)c(Cl)c2)[C@@H](c2ccccc2)[C@@H]1c1ccccc1 (relative stereo) [Example 7, 1-[(3,4-Dichlorobenzyl)aminocarbonyl]-4,5-diphenyl-3pyrazolidinone]
Brain CCK receptor
  IC50: 1.1 µM
[1]
  inhibition at 10 µM: 81%
pKa by titration; first or only value
  pKa: 8.4

## Nc1ccc(NC(=O)N2NC(=O)[C@@H](c3ccccc3)[C@@H]2c2ccccc2)cc1 (relative stereo) [Example 10, 1-[(4-Aminophenyl)aminocarbonyl]-4,5-diphenyl-3-pyrazolidinone]
Brain CCK receptor
  inhibition at 10 µM: 57%
[1]
  inhibition at 10 µM: 4%
pKa by titration; first or only value
  pKa: 4.5
pKa by titration; second value
  pKa: 8.1

## O=C1NN(C(=O)c2cccc(C(F)(F)F)c2)[C@@H](c2ccccc2)[C@@H]1c1ccccc1 (relative stereo) [Example 5]
Brain CCK receptor
  inhibition at 10 µM: 77%
[1]
  inhibition at 10 µM: 18%
pKa by titration; first or only value
  pKa: 7.15

## CN(C)c1ccc(NC(=O)N2NC(=O)[C@@H](c3ccccc3)[C@@H]2c2ccccc2)cc1 (relative stereo) [Example 2, 1-[(4-N,N-Dimethylaminophenyl)aminocarbonyl]-4,5-diphenyl-3-pyrazolidinone]
Brain CCK receptor
  IC50: 0.29 µM
[1]
  inhibition at 10 µM: 14%
pKa by titration; first or only value
  pKa: 4
pKa by titration; second value
  pKa: 7.9

## O=C1NN(C(=O)Nc2ccc(OCc3ccccc3)cc2)[C@@H](c2ccccc2)[C@@H]1c1ccccc1 (relative stereo) [Example 3, 1-[(4-Benzyloxyphenyl)aminocarbonyl]-4,5-diphenyl-3-pyrazolidinone]
Brain CCK receptor
  IC50: 0.054 µM
[1]
  inhibition at 10 µM: 34%
Gastrin receptor
  IC50: 1.1 µM
pKa by titration; first or only value
  pKa: 7.7

## O=C(CCCN1CCC(O)(c2ccc(Cl)cc2)CC1)c1ccc(F)cc1 [Haloperidol]
Catalepsy bar test; 0.25 mg/kg, 60 Min
  Catalepsy Score: 2.2 ± 0.3 s
Catalepsy bar test; 0.25 mg/kg, 120 Min, * P < 0.001 vs vehicle
  Catalepsy Score: 9.9 ± 2.7 s
Catalepsy bar test; 0.25 mg/kg, 180 Min, * P < 0.001 vs vehicle
  Catalepsy Score: 23.1 ± 4.9 s
Catalepsy bar test; 0.25 mg/kg, Pre
  Catalepsy Score: 1.8 ± 1.1 s
Catalepsy bar test; 0.5 mg/kg, 60 Min
  Catalepsy Score: 3.3 ± 1.7 s
Catalepsy bar test; 0.5 mg/kg, 120 Min, * P < 0.001 vs vehicle
  Catalepsy Score: 17.6 ± 2.2 s
Catalepsy bar test; 0.5 mg/kg, 180 Min, * P < 0.001 vs vehicle
  Catalepsy Score: 33.5 ± 8.3 s
Catalepsy bar test; 0.5 mg/kg, Pre
  Catalepsy Score: 0.9 ± 0.2 s
Catalepsy bar test; 1.0 mg/kg, 60 Min, * P < 0.001 vs vehicle
  Catalepsy Score: 10.6 ± 6.3 s
Catalepsy bar test; 1.0 mg/kg, 120 Min, * P < 0.001 vs vehicle
  Catalepsy Score: 100.0 ± 46.2 s
Catalepsy bar test; 1.0 mg/kg, 180 Min, * P < 0.001 vs vehicle
  Catalepsy Score: 123.9 ± 39.7 s
Catalepsy bar test; 1.0 mg/kg, Pre
  Catalepsy Score: 1.2 ± 0.4 s
[2]; 60 Min
  Catalepsy Score: 9.72 ± 2.1 s
[2]; 120 Min
  Catalepsy Score: 27.42 ± 6 s
[2]; 180 Min
  Catalepsy Score: 30.61 ± 6.4 s
[2]; Pre
  Catalepsy Score: 3.12 ± 0.61 s

## O=C1NN(C(=O)Oc2ccc(Cl)cc2)[C@@H](c2ccccc2)[C@@H]1c1ccccc1 (relative stereo) [Example 6, 1-[(4-Chlorophenyl)oxycarbonyl]-4,5-diphenyl-3pyrazolidinone]
Brain CCK receptor
  IC50: 4.4 µM
[1]
  inhibition at 10 µM: 15%
pKa by titration; first or only value
  pKa: 7.8
